Consider one molecule from patent publication US12004511B2, “Method of controlling weeds in warm season turfgrass” (SYNGENTA PARTICIPATIONS AG, priority 2017, dated 2024).

Assay [1] has as its system dallisgrass (Paspalum dilatatum). As to the kind of experiment: Dallisgrass control in bermudagrass. In kind it is in vivo. The conditions noted are these: two applications, 28 days after the first application. From the text:
Applications initiated on Oct. 1, 2014.
initiated in AL for dallisgrass control in bermudagrass on Oct. 28, 2013. Two applications were applied. Percent dallisgrass control was taken 28 days after the first application.

Assay [2] relates to tropical signalgrass (Urochloa subquadripara). As to the kind of experiment: Tropical signalgrass control in Bermudagrass plots. In kind it is in vivo. The conditions noted are these: 28 days after application. The source says:
Applications of pinoxaden, and pinoxaden plus cloquintocet were applied to various Bermudagrass plots with tropical […] present between August 11 and August 13. The plots were again evaluated 28 days following the application. The following percent weed controls were observed.

For the molecule `CCc1cc(C)cc(CC)c1-c1c(OC(=O)C(C)(C)C)n2n(c1=O)CCOCC2` [Pinoxaden, 8-(2,6-Diethyl-4-methylphenyl)-7-oxo-1,2,4,5-tetrahydro-7H-pyrazolo[1,2-d][1,4,5]oxadiazepin-9-yl-2,2-dimethylpropanoat], the “% Control (28 Days AIA)” value worked out at 82% in assay [1] (45 g active/ha), 85% in assay [1] (90 g active/ha), 79.5% in assay [2] (70 g active/ha) and 89.7% in assay [2] (140 g active/ha).
